{"source": "patent US20160136229A1", "about": "“MATERIALS FOR POSITIVE CATHEPSIN B MODULATION AND METHODS OF USE FOR TREATING MILD COGNITIVE IMPAIRMENT (MCI), EARLY DEMENTIA, A-SYNUCLEINOPATHY, TRAUMATIC BRAIN INJURY, CARDIOMYOPATHY, EYE DISEASE AND SKIN DAMAGE” (University of North Carolina at Pembroke, priority 2013, published 2016)", "key": {"[1]": {"molecular_target": "T1, active form of cathepsin B (Mus musculus, UniProt P10605)", "T1 construct": "from tissue; host or cells: brain and CNS regions of mice (PADK-treated mice, A53T transgenic and wild-type mice, C57BL/6 mice)", "T1 sequence (P10605 80-333 limits assumed)": "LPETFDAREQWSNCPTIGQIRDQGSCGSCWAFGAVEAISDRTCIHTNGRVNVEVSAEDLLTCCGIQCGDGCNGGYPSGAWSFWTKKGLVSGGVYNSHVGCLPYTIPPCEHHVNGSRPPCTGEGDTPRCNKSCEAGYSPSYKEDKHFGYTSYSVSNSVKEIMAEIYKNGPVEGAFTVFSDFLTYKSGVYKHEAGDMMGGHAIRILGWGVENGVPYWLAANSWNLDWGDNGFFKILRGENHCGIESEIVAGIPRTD", "test": "Active cathepsin B immunoblot in CNS regions of A53T α-synuclein transgenic mice", "format": "in vivo", "settings": "i.p., 18 mg/kg/day", "experimental": "(§1) FIG. 4. Enhancing lysosome efficiency with the cathepsin B modulator PADK leads to reductions of multiple types of proteinopathy-related accumulation events. […] Age-matched wild-type mice (wt) and 9-10-month mutant human APP mice, a model of early dementia, treated with or without PADK were assessed for the 4-kDa Δβ peptide, the active form of cathepsin B (act CB), and other proteins in hippocampal samples (C). Similar treatment groups used another APP mouse model at 20-22 months of age to measure clearance of APP carboxyterminal fragments APP-αCTF and APP-βCTF (D). Rat hippocampal slice cultures from the untreated control group (con) and slices treated with submicromolar Δβ42 (early tauopathy model) in the absence or presence of PADK (5 μM for 4 days) were assessed for phosphorylated tau (pTau) and other proteins (E). For a model of early α-synucleinopathy, human A53T α-synuclein transgenic mice, at 7 months old, were studied with or without PADK treatment and assessed for human α-synuclein (α-syn) in TX-100 extracts of hippocampus and for other proteins in hippocampal homogenates (F). Plotted data (±SEM) were compared to neighboring vehicle groups by unpaired t-tests: *p=0.02, **p<0.01, ***p<0.001. APPswind and APP-PS1 mice are described in Butler et al., (2011), the entire content of which is hereby incorporated herein by reference.\nFIG. 6. […]"}, "[2]": {"molecular_target": "T2, 30-kDa active form of cathepsin B (Rattus norvegicus, UniProt P00787)", "T2 construct": "assessed by immunoblot to label the 30-kDa active form of cathepsin B; from tissue; host or cells: Fischer rat brain regions (A5); rat brain regions, eye and skin after oral dosing (A18); rat organotypic heart slice cultures (A17)", "T2 sequence (P00787 80-333 limits assumed)": "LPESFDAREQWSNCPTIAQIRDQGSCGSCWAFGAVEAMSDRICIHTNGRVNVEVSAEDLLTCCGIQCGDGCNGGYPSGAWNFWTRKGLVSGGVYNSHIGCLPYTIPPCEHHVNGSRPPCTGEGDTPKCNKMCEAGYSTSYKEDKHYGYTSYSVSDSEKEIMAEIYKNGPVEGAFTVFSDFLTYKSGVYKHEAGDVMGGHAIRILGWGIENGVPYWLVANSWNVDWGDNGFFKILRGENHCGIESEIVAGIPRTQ", "test": "Active cathepsin B immunoblot in brain, eye and skin after oral dosing in rats", "format": "in vivo", "experimental": "FIG. 10. The modulatory compound PADK up-regulates active cathepsin B in brain, eyes, and skin after oral dosing in rats. […] Four different brain regions were dissected and homogenates prepared, and equal protein aliquots were assessed by immunoblot to label the 30-kDa active form of cathepsin B (FC=frontal cortex)."}, "[3]": {"test_system": "rats", "test": "Adverse effect observation after oral dosing in rats", "format": "in vivo, rat", "settings": "15 mg/kg twice a day, 10 days"}, "[4]": {"test_system": "mutant colonies", "test": "Ames test of genetic toxicity", "format": "cell-based", "settings": "in contrast to a mutagen tested in parallel"}, "[5]": {"test_system": "cathepsin B", "test": "Cathepsin B species immunoblot in heart tissue of A53T mice", "format": "in vivo, mouse", "experimental": "FIG. 8. PADK also enhances cathepsin B species in the heart. The A53T early α-synucleinopathy mouse model was injected daily with vehicle or PADK (i.p., 18 mg/kg/day) to test for changes in heart tissue. […] Positions of molecular weight standards (kDa) are shown on the left side of the immunoblot. (B) In the lower graph, ratios between CB-30 and CB-105 (mean±SEM) provide a good example of the unique PADK effect on cathepsin B species in the heart. **P<0.01 as compared to vehicle-treated A53T mice.\nRatio measures between the 30-kDa form and the 105-kDa species indicate a unique PADK effect on cathepsin B species in the heart (FIG. 8 bar graph)."}, "[6]": {"test_system": "GluR1", "test": "Immunoblot of postsynaptic marker GluR1 in hippocampal homogenates of Fischer rats", "format": "in vivo, rat", "settings": "27 mg/kg daily for 9 days; vs vehicle, p=0.0386", "experimental": "(§2) FIG. 3. Lysosomal modulator PADK dramatically up-regulates active cathepsin B levels in middle-aged Fischer rats, a model of MCI. The female rats were injected daily with vehicle (veh) or 27 mg/kg PADK for 9 days. Brain regions were dissected, homogenates prepared, and equal protein aliquots were assessed by immunoblot to label the 30-kDa active form of cathepsin B as well as actin load controls (A). The hippocampal homogenate samples were also stained for the postsynaptic marker GluR1 to assess for synaptic recovery in correspondence to cathepsin B regulation (A, lower blots).\n(§3) Brains were removed from the Fischer rats after the behavior studies in order to assess cathepsin B and synaptic marker levels. […] Cathepsin B immunoreactivity was increased 4- to 8-fold in hippocampal as well as neocortical homogenates, while non-lysosomal proteins remained unchanged (gel load controls). In addition to the correspondence with improved memory, there is evidence that the lysosomal modulation corresponds with synaptic recovery, assessing the postsynaptic marker GluR1 in hippocampus (FIG. 3A lower blots, and FIG. 3C). Without wishing to be bound by any scientific theory, the results support the hypothesis that lysosomal enhancement offsets the age-related cascade of microtubule destabilization, transport failure, synaptic decline, and cognitive impairment. […]"}, "[7]": {"test_system": "human α-synuclein", "test": "Human α-synuclein clearance in A53T transgenic mice", "format": "in vivo, mouse", "settings": "i.p., 18 mg/kg/day, p=0.01 vs vehicle-treated A53T mice", "experimental": "as §1\nFIG. 6. […]"}, "[8]": {"molecular_target": "T2, 30-kDa active form of cathepsin B", "test": "Immunoblot of active cathepsin B in brain region homogenates of Fischer rats", "format": "in vivo", "settings": "hippocampal and neocortical homogenates; 27 mg/kg daily, 9 days of injections", "experimental": "as §2, §3"}, "[9]": {"settings": "oral, peanut butter mixture, 15 mg/kg twice a day, 10 days"}}}
{"smiles": "C[C@H](NC(=O)[C@H](Cc1ccccc1)NC(=O)OCc1ccccc1)C(=O)C=[N+]=[N-]", "note": "[PADK, N-carbobenzyloxy-L-phenylalanyl-L-alanyl-diazomethylketone]", "values": [{"measurement": "active CatB levels increase in brains", "setting": "[1]; 7-8 months", "result": "3-6 fold"}, {"measurement": "active form of cathepsin B across CNS regions (immunoblot)", "setting": "[1]; 7 months, p<0.02 vs vehicle-treated tg", "result": "robust PADK-mediated increase"}, {"measurement": "BBB crossing after oral dosing", "setting": "[2]; inferred from enhanced active cathepsin B in brain regions after 10 days of 15 mg PADK/kg/0.5 day", "result": "crossing the BBB"}, {"measurement": "active cathepsin B in brain", "setting": "[2]; [9]", "result": "up-regulate"}, {"measurement": "active cathepsin B in eye tissue", "setting": "[2]; [9]", "result": "significant increases"}, {"measurement": "active cathepsin B in skin tissue", "setting": "[2]; [9]", "result": "significant increases"}, {"measurement": "adverse effects during behavioral tests", "setting": "[3]", "result": "no evidence of adverse effects"}, {"measurement": "mutant colonies in the Ames test", "setting": "[4]", "result": "did not produce mutant colonies"}, {"measurement": "high molecular weight cathepsin B species (CB-80, CB-85, CB-105) in heart", "setting": "[5]; A53T mice, i.p., 18 mg/kg/day", "result": "returned the high molecular weight species to near normal levels"}, {"measurement": "ratio between active cathepsin B form of 30 kDa and the precursor of >100 kDa", "setting": "[5]; heart tissue, p<0.01 vs vehicle-treated A53T mice", "result": "enhances the ratio"}, {"measurement": "GluR1 levels in hippocampus", "setting": "[6]", "result": "increased"}, {"measurement": "human α-synuclein levels", "setting": "[7]", "result": "decrease"}, {"measurement": "Cathepsin B immunoreactivity increase", "setting": "[8]", "result": "4- to 8 fold"}]}
